The values below come from PubChem BioAssay (NCI).

Values joined by “and” are separate entries in the source; they are usually repeats but may differ in a detail not shown here. Equal values may be shown once.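 Assay format: 96-well plates, 48-hour exposure. GI50: concentration for 50% inhibition of growth. At the TGI there is no net growth.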 Where a SMILES comes first, the peptide text is derived from it. [ ]: non-standard residue; d: D form. The star is where a group is joined. ξ: configuration not given here. X6 = FC(F)(F)c1cc(NC(=S)*)cc(C(F)(F)F)c1; ξF = NC(Cc1ccccc1)C(=O)O

Holding throughout (test): inhibition of tumour cell growth, NCI panel, 48 h
Experiment [1] concerns ACHN renal.
The subject of experiment [2] is BT-549 breast.
The test system of experiment [3] is CAKI-1 renal.
Experiment [4] deals with CCRF-CEM leukemia.
Experiment [5] has as its system HOP-62 NSCLC.
Experiment [6] has as its system K-562 leukemia.
In experiment [7] the test system is M14 melanoma.
The test system of experiment [8] is SF-539 CNS.
In experiment [9] the test system is T-47D breast.
For experiment [10], the system named is UO-31 renal.

For the compound `COC(=O)[C@@H](NC(=O)CNC(=O)[C@H]1CCCN1C(=O)C(Cc1ccccc1)NC(=S)Nc1cc(C(F)(F)F)cc(C(F)(F)F)c1)C(C)C` (some centres undefined) (X6-[ξF][dP]GV-OMe), the GI50 in experiment [1] is 3.36 µM; in experiment [2], 1850 nM; in experiment [3] it was 2.71 µM; in [4] it was 3.17 µM; in experiment [5], 1920 nM; in experiment [6], 3.27 µM. For the same compound, the GI50 was 3.33 µM in experiment [7], 2060 nM in experiment [8], 3.87 µM in experiment [9] and 2.91 µM in [10]. Further, the TGI in [1] is 10.7 µM; in experiment [2] it was 3.78 µM; in [3] it was 10.5 µM; in experiment [4], 35.1 µM; in experiment [5], 3.62 µM; in [6], 30.1 µM. Also, the TGI in [7] stood at 10.5 µM; in experiment [8], 3.94 µM; in experiment [9], 28.8 µM; in [10], 13.9 µM.
With `COC1=CC(c2ccc[nH]2)=N/C1=C\c1[nH]c(C)c(C(=O)OC(C)C)c1C`, the GI50 is 0.0456 µM in [1]; 61 nM in experiment [2]; 0.0158 µM in experiment [3]; 0.0316 µM in experiment [4]; 123 nM in experiment [5]; 0.0674 µM in [6]. In addition, the GI50 in experiment [7] is 0.034 µM; in experiment [8], 69 nM; in experiment [9], 0.0522 µM; in experiment [10], 0.0494 µM. Moreover, the TGI in [1] was 1.2 µM; in experiment [2], 2.68 µM; in [3], 0.236 µM; in experiment [4] it was over 100 µM; in experiment [5], 1.84 µM; in experiment [6], 1.14 µM. Also, the TGI in experiment [7] amounted to 1.23 µM; in experiment [8], 1.53 µM; in experiment [9], 1.74 µM; in experiment [10], 0.175 µM.
In the case of `CCOC(=O)[C@]1(OC(C)=O)C[C@H](OC(C)=O)[C@@H](C(F)COP(=O)(OCc2ccccc2)OCc2ccccc2)O1` (some centres undefined), the GI50 in experiment [1] was 34.8 µM and > 100 µM; in experiment [7] it was 49.4 µM and > 100 µM; in experiment [9], 34.2 µM and > 100 µM; in experiment [10] it was 21.6 µM and > 100 µM. Besides, the TGI in [1], in [2], in experiment [3], in experiment [4], in experiment [5] and in [6] was over 100 µM in each case. Besides, the TGI in experiment [7] is over 100 µM; in experiment [8] it was over 100 µM; in experiment [9], 93.1 µM and > 100 µM; in experiment [10] it was 43.5 µM and > 100 µM.
Take `Cc1ccc2c(=O)cc(-c3ccc(F)cc3)[nH]c2n1`: the TGI in experiment [1] is over 100 µM; in experiment [2] it was over 100 µM; in experiment [3] it was over 100 µM; in experiment [4], over 100 µM; in [5] it was over 100 µM; in experiment [6], 83 µM. For the same compound, the TGI in experiment [7], in experiment [8], in experiment [9] and in experiment [10] was over 100 µM throughout.
`COC1=CC(=O)c2nc(-c3ccncc3)[nH]c2C1=O`: the GI50 was over 100 µM in experiment [1]; over 100000 nM in experiment [2]; 86.6 µM in experiment [3]; over 100 µM in experiment [4]; over 100000 nM in [5]; over 100 µM in [6]. The GI50 in experiment [7] was over 100 µM; in [8], over 100000 nM; in experiment [9], over 100 µM; in experiment [10], 86.7 µM. Moreover, the TGI in [1], in [2], in [3], in experiment [4], in experiment [5] and in [6] was over 100 µM in each case. Also, the TGI in experiment [7], in experiment [8], in experiment [9] and in experiment [10] was over 100 µM in each case.
For the compound `OCc1ccc(N2CCC2c2ccc(F)cc2)cc1Cl` (centres undefined), the GI50 is 30.8 µM in experiment [1]; 21200 nM in experiment [2]; 12.9 µM in [3]; 26 µM in experiment [4]; 10100 nM in experiment [5]; 6.66 µM in experiment [6]. For the same compound, the GI50 in [7] was 32.7 µM; in experiment [8] it was 33500 nM; in experiment [9] it was 0.209 µM; in experiment [10], 20.8 µM. Also, the TGI was over 100 µM in experiment [1]; 49.9 µM in experiment [2]; over 57.1 µM in experiment [3]; over 82.9 µM in experiment [4]; over 68 µM in experiment [5]; 58.6 µM in experiment [6]. Moreover, the TGI was over 79.4 µM in [7], over 71 µM in experiment [8], 1.72 µM in [9] and 76.3 µM in experiment [10].
As for `O=C1C=C(Cl)C(=O)C(c2ccc(Cl)cc2)=C1`, the TGI in [1] was determined as 30.3 µM; in experiment [2], 46 µM; in experiment [3], 35.1 µM; in [4], 15.9 µM; in experiment [5] it was 44 µM; in [6] it was 23.8 µM. For the same compound, the TGI was determined as 32.2 µM in experiment [7], 32.4 µM in experiment [8], 84.4 µM in [9] and 28.5 µM in [10].
